According to paper PMC8854749, “Celastrol Inhibits Canine Mammary Tumor Cells by Inducing Apoptosis via the Caspase Pathway” (Frontiers in Veterinary Science, 2022):

Experiments:
Type in all cases: cell-based, canine
CIPp cells [1] = assay: Colony formation assay; settings: 0.3 μM or 0.9 μM for 24 h, then 10 days, vs control group
Method: (§1) CMT-7364 and CIPp cells were seeded in a 6-well cell culture plate at a concentration of 1 × 10^4 cells/well until they became adherent, cultured for another 24 h with serum-containing medium with 0 μM celastrol (control group), 0.3 μM celastrol, and 0.9 μM celastrol, respectively. Cells were treated with 0.25% trypsin (Gibco, NY, United States) and resuspended into single cells, each group of cells was seeded in a 6-well cell culture plate at 400 cells/well concentration, and cultured for 10 consecutive days. […] The cells were stained with 0.1% crystal violet, and photographed with a digital camera, followed by calculating the number of colonies.

CMT-7364 cells [2] = assay: Colony formation assay; settings: 0.3 μM or 0.9 μM for 24 h, then 10 days, vs control group
Method: as §1

CIPp cells [3] = assay: Cell invasion (transwell, Matrigel) assay
Method: (§2) The transwell chambers were placed in a 24-well cell culture plate, each well was plated with 100 μl serum-free medium containing 5% Matrigel on the upper chamber, and placed in incubator at 37°C for 2 h. The excess media were pipetted out of the upper chamber, 100 μl of cell suspension with or without celastrol treatment (0.3 μM or 0.9 μM) were added at a concentration of 1 × 10^4 cells/ml in each upper chamber; the lower chambers were filled with 600 μl medium containing 10% serum for each well. […] PBS was used to rinse the chambers for 2 min with 3 times repeated, then the cells were fixed with methanol for 10 min, followed by distilled water rinsed for 2 min with 3 times repeated. Finally, cells were dyed with 0.1% crystal violet at room temperature for 20 min, and washed with distilled water until the water is colorless. Images of cell invasion were taken with an inverted microscope, and the stained cells represented the invasion cells were counted by a cell counter to analyze the cell invasion rate. The relative invasion rate = (cell number celastrol /cell number control) × 100%.

CMT-7364 cells [4] = assay: Cell invasion (transwell, Matrigel) assay
Method: as §2

CIPp cells [5] = assay: qPCR of Caspase-3, Caspase-9, p21, p27 mRNA (2^-ΔΔCt, β-actin reference)
Method: (§3) After CMT-7364 and CIPp cells were treated with or without 0.9 μM celastrol for 24 h, TRIzol was used to isolate the total RNA of the cells. The RNA was then reverse transcribed into cDNA using a reverse transcriptase kit. A 20 μl reaction system was prepared according to the manufacturer's instructions and tested in the Real-Time PCR System (Long Gene Q1000, China). The results were analyzed by the 2^−ΔΔCt method: ΔΔCt = (target gene Ct of the experimental group-internal reference gene Ct of the experimental group)-(target gene Ct of the control group-internal reference gene Ct of the control group), β-actin was the internal reference gene.

CMT-7364 cells [6] = assay: as above
Method: as §3

CIPp cells [7] = assay: Western blot of apoptosis- and cell cycle-related proteins; settings: different concentrations, 24 h, Western blot
Method: (§4) The CMT-7364 and CIPp cells were treated with different concentrations of Caspase inhibitor Z-V-F and/or celastrol for 24 h, and the cells were lysed with RIPA lysis buffer on ice. The protein was extracted according to the manufacturer's instructions, and protein concentration was determined by the BCA protein concentration assay kit. The loading amount of 20 μg protein in each group was separated by 10% SDS-PAGE, the separated protein was transferred to polyvinylidene fluoride membrane. After blocking with 5% skimmed milk for 1 h, the membrane was washed two times with 0.5% PBS-Tween 20 (PBS-T), then the membrane with the primary antibody was incubated overnight in a shaker at 4°C. Primary antibodies include β-actin (1:2,000), p65 (1:1,000), NF-κB (1:1,000), Caspase-9 (1:1,000), Caspase-3 (1:1,000), Bax (1:2,000), Bcl-2 (1:1,000), Cyclin D1 (1:1,000), p21 (1:1,000), and p27 (1:1,000). After washing 3 times with PBS-T buffer for 10 min each time, the membrane was incubated with HRP-conjugated secondary antibody at 37°C for 30 min. Secondary antibodies include anti-mouse IgG antibody (1:5,000), anti-rabbit IgG antibody (1:2,000~1:4,000). The membrane was washed 3 times with PBS-T for 10 min each time. Finally, it was detected by an enhanced chemiluminescence detection system, and the results were quantified by ImageJ.

CMT-7364 cells [8] = assay: as above; settings: different concentrations, 24 h, Western blot
Method: as §4

[9] = 0.9 μM, 24 h, relative to control
[10] = 0.3 and 0.9 μM, vs control group
[11] = CIPp cells, 0.9 μM, 24 h, qPCR, vs control
[12] = CMT-7364, 0.9 μM celastrol, SYBR
[13] = CMT-7364 cells, 0.9 μM, 24 h, qPCR, vs control
[14] = test 1, CMT-7364 cells, 0.9 μM, instrument sheet, CMT-7364 control RQ 1

With CC1=C(O)C(=O)C=C2C1=CC=C1[C@@]2(C)CC[C@@]2(C)[C@@H]3C[C@](C)(C(=O)O)CC[C@]3(C)CC[C@]12C [celastrol, Celastrol] the formation of colonies (CIPp cells [1]) was “significantly inhibited the formation of colonies”, the formation of colonies (CMT-7364 cells [2]) was “significantly inhibited the formation of colonies” and the invasion rate (CIPp cells [3]; [9]) was 32.00 ± 1.73%. The invasion ability (CIPp cells [3]; [10]) was “inhibited the invasion ability of CMT-7364 and CIPp cells in a dose-dependent manner”, the invasion rate (CMT-7364 cells [4]; [9]) was 28.00 ± 1.53% and the invasion ability (CMT-7364 cells [4]; [10]) was “inhibited the invasion ability of CMT-7364 and CIPp cells in a dose-dependent manner”. The “mRNA expression level of Caspase-3” value (CIPp cells [5]; [11]) was “significantly up-regulated”, the “mRNA expression level of Caspase-9” value (CIPp cells [5]; [11]) was “significantly up-regulated” and the “mRNA expression level of p21” value (CIPp cells [5]; [11]) was “up-regulated”. For the same compound, the “mRNA expression level of p27” value (CIPp cells [5]; [11]) was “up-regulated”, the “RQ Max, caspase-9” value (CIPp cells [5]; CIPp, 0.9 μM celastrol, SYBR) was 2.2 and the “RQ Max, p-21” value (CIPp cells [5]; CIPp, 0.9 μM celastrol, SYBR) was 155.13. The “RQ Max, p-27” value (CIPp cells [5]; CIPp, 0.9 μM celastrol, SYBR) was 4.26, the “RQ Max, β-actin” value (CIPp cells [5]; CIPp, 0.9 μM celastrol, SYBR) was 0.51 and the “RQ Min, caspase-9” value (CIPp cells [5]; CIPp, 0.9 μM celastrol, SYBR) was 0.78. For the same compound, the “RQ Min, p-21” value (CIPp cells [5]; CIPp, 0.9 μM celastrol, SYBR) was 3.13, the “RQ Min, p-27” value (CIPp cells [5]; CIPp, 0.9 μM celastrol, SYBR) was 1.54 and the “RQ Min, β-actin” value (CIPp cells [5]; CIPp, 0.9 μM celastrol, SYBR) was 0.16. The “RQ, caspase-9” value (CIPp cells [5]; CIPp, 0.9 μM celastrol, SYBR) was 1.31, the “RQ, p-21” value (CIPp cells [5]; CIPp, 0.9 μM celastrol, SYBR) was 22.02 and the “RQ, p-27” value (CIPp cells [5]; CIPp, 0.9 μM celastrol, SYBR) was 2.56. The “RQ, β-actin” value (CIPp cells [5]; CIPp, 0.9 μM celastrol, SYBR) was 0.29, the “RQ, caspase-9” value (CIPp cells [5]; test 1, CIPp cells, 0.9 μM, instrument sheet, calibrator CMT-7364 control RQ 1, CIPp control RQ 0.41) was 0.44 and the “RQ, caspase-3” value (CIPp cells [5]; test 1, CIPp cells, 0.9 μM, instrument sheet, calibrator CMT-7364 control RQ 1, CIPp control RQ 0.46) was 0.42. For the same compound, the “RQ, p-21” value (CIPp cells [5]; test 1, CIPp cells, 0.9 μM, instrument sheet, calibrator CMT-7364 control RQ 1, CIPp control RQ 0.49) was 0.27, the “RQ, p-27” value (CIPp cells [5]; test 1, CIPp cells, 0.9 μM, instrument sheet, calibrator CMT-7364 control RQ 1, CIPp control RQ 0.59) was 0.17 and the “RQ, caspase-9” value (CIPp cells [5]; test 2, CIPp cells, 0.9 μM, instrument sheet, calibrator CMT-7364 0.9 μM celastrol RQ 1, CIPp control RQ 156.08) was 8.49. For the same compound, the “RQ, p-21” value (CIPp cells [5]; test 2, CIPp cells, 0.9 μM, instrument sheet, calibrator CMT-7364 0.9 μM celastrol RQ 1, CIPp control RQ 156.97) was 12.17, the “RQ, p-27” value (CIPp cells [5]; test 2, CIPp cells, 0.9 μM, instrument sheet, calibrator CMT-7364 0.9 μM celastrol RQ 1, CIPp control RQ 162.87) was 12.46 and the “RQ Max, caspase-9” value (CMT-7364 cells [6]; [12]) was 2.21. The “RQ Max, p-27” value (CMT-7364 cells [6]; [12]) was 1.96, the “RQ Max, β-actin” value (CMT-7364 cells [6]; [12]) was 1.84 and the “RQ Min, caspase-9” value (CMT-7364 cells [6]; [12]) was 0.45. The “RQ Min, p-21” value (CMT-7364 cells [6]; [12]) was 0, the “RQ Min, p-27” value (CMT-7364 cells [6]; [12]) was 0.51 and the “RQ Min, β-actin” value (CMT-7364 cells [6]; [12]) was 0.54. For the same compound, the “RQ, caspase-9” value (CMT-7364 cells [6]; [12]) was 1, the “RQ, p-21” value (CMT-7364 cells [6]; [12]) was 1 and the “RQ, p-27” value (CMT-7364 cells [6]; [12]) was 1. For the same compound, the “RQ, β-actin” value (CMT-7364 cells [6]; [12]) was 1, the “mRNA expression level of Caspase-3” value (CMT-7364 cells [6]; [13]) was “significantly up-regulated” and the “mRNA expression level of Caspase-9” value (CMT-7364 cells [6]; [13]) was “significantly up-regulated”. The “mRNA expression level of p21” value (CMT-7364 cells [6]; [13]) was “up-regulated”, the “mRNA expression level of p27” value (CMT-7364 cells [6]; [13]) was “up-regulated” and the “RQ, caspase-3” value (CMT-7364 cells [6]; [14]) was 0.26. The “RQ, caspase-9” value (CMT-7364 cells [6]; [14]) was 0.29, the “RQ, p-21” value (CMT-7364 cells [6]; [14]) was 0.53 and the “RQ, p-27” value (CMT-7364 cells [6]; [14]) was 0.19. For the same compound, the “RQ, p-27” value (CMT-7364 cells [6]; test 2, CMT-7364 cells, 0.9 μM, instrument sheet, this sample is the calibrator (ΔΔCt 0.00), CMT-7364 control RQ 1.47) was 1, the “RQ, caspase-9” value (CMT-7364 cells [6]; test 2, CMT-7364 cells, 0.9 μM, instrument sheet, this sample is the calibrator (ΔΔCt 0.00), CMT-7364 control RQ 25.61) was 1 and the “RQ, p-21” value (CMT-7364 cells [6]; test 2, CMT-7364 cells, 0.9 μM, instrument sheet, this sample is the calibrator (ΔΔCt 0.00), CMT-7364 control RQ 51.05) was 1. The “protein expression level of Bax” value (CIPp cells [7]) was “significantly up-regulated”, the “protein expression level of Bcl-2” value (CIPp cells [7]) was “significantly down-regulated” and the “protein expression level of Cleaved-Caspase-3” value (CIPp cells [7]) was “significantly up-regulated”. The “protein expression level of Cleaved-Caspase-9” value (CIPp cells [7]) was “significantly up-regulated”, the “protein expression level of Cyclin D1” value (CIPp cells [7]) was “down-regulated” and the “protein expression level of NF-kB” value (CIPp cells [7]) was “significantly down-regulated”. The “protein expression level of p21” value (CIPp cells [7]) was “up-regulated”, the “protein expression level of p27” value (CIPp cells [7]) was “up-regulated” and the “protein expression level of phosphorylated p65” value (CIPp cells [7]) was “significantly down-regulated”. For the same compound, the “protein expression level of Bax” value (CMT-7364 cells [8]) was “significantly up-regulated”, the “protein expression level of Bcl-2” value (CMT-7364 cells [8]) was “significantly down-regulated” and the “protein expression level of Cleaved-Caspase-3” value (CMT-7364 cells [8]) was “significantly up-regulated”. The “protein expression level of Cleaved-Caspase-9” value (CMT-7364 cells [8]) was “significantly up-regulated”, the “protein expression level of Cyclin D1” value (CMT-7364 cells [8]) was “down-regulated” and the “protein expression level of NF-kB” value (CMT-7364 cells [8]) was “significantly down-regulated”. For the same compound, the “protein expression level of p21” value (CMT-7364 cells [8]) was “up-regulated”, the “protein expression level of p27” value (CMT-7364 cells [8]) was “up-regulated” and the “protein expression level of phosphorylated p65” value (CMT-7364 cells [8]) was “significantly down-regulated”.
